Patent publication US11261201B2 (priority 2018, dated 2022)
Converted amounts (≈) assume the structure as drawn. Where a name gives a salt, the structure may show the parent alone. Read-outs that look alike come from different tables or passages of the source.

What was measured:
H37RvMA = assay: Tuberculosis Alamar Blue/Resazurin assay (MIC); assay type: cell-based; conditions: read-out: WT H37Rv MTB Activity
E. coli = assay: Gram negative MIC protocol (OD600, LB, 24 h); conditions: for MIC: Escherichia coli; for MIC E. coli delta-TolC LB Media / MIC WT E. coli LB Media: OD600
Experimental: (§1) Overnight bacterial cultures were grown in LB with no added antibiotics at 37° C. with shaking. A 1:1000 dilution of these cultures into LB was exposed to concentration gradients of compounds in 96-well plates (100 μL per well assay volume). Resulting plates were incubated at 37° C. for 24 h without shaking, and OD600 was measured at the end of the incubation. MICs were determined as the lowest concentrations at which OD600 remained at baseline.

A. baumannii = assay: Gram negative MIC protocol (OD600, LB, 24 h); conditions: for MIC: Acinetobacter baumannii; for MIC A. baumannii LB Media: OD600
Experimental: as §1

[1] = Mycobacterium tuberculosis, H37RV
[2] = read-out: MIC E. coli delta-TolC LB Media, E. coli delta-TolC strain, LB media, 24 h, OD600
[3] = read-out: MIC WT E. coli LB Media, wild-type E. coli, LB media, 24 h, OD600
[4] = read-out: MIC A. baumannii LB Media, A. baumannii, LB media, 24 h, OD600
[5] = Mycobacterium tuberculosis, H37RV, WT H37Rv MTB
[6] = read-out: MIC E. coli delta-TolC LB Media, E. coli delta-TolC, LB media, OD600
[7] = read-out: MIC WT E. coli LB Media, WT E. coli, LB media, OD600
[8] = read-out: MIC A. baumannii LB Media

Structure (SMILES) | MIC (A. baumannii; [4]) [µM] | MIC (H37RvMA; [5]) [µM] | MIC (E. coli; [6]) [µM] | MIC (E. coli; [7]) [µM] | also measured
Fc1ccc(C2CC2NCc2ccccc2)cc1F (stereo in doubt) [B211, (1S,2R)-N-benzyl-2-(3,4-difluorophenyl)cyclopropanamine hydrochloride] | 300 | – | – | – | MIC (H37RvMA; [1]): > 150 µM; MIC (E. coli; [2]): 300 µM; MIC (E. coli; [3]): > 300 µM
CC(C)CCNCc1ccccc1 [B2] | > 150 | > 150 | > 150 | > 150 | –
C1=C(CCNCc2ccncc2)CCCC1 [B3] | > 150 | > 150 | > 150 | > 150 | –
C1=C(CCNCc2cccnc2)CCCC1 [B4] | > 150 | – | > 150 | > 150 | MIC (H37RvMA; [1]): > 150 µM
CC(CNCc1ccccc1)C1CCCC1 (stereo not shown) [B5] | > 150 | > 150 | > 150 | > 150 | –
CCCCCCNCc1ccccc1 [B6] | > 150 | > 150 | > 150 | > 150 | –
c1ccc(CNC2CCCCC2)cc1 [B7] | > 150 | > 150 | > 150 | > 150 | –
CC(Cc1ccccc1)NCc1ccccc1 (stereo not shown) [B8] | – | – | > 150 | > 150 | MIC (H37RvMA; [1]): > 150 µM; MIC (A. baumannii; [8]): > 150 µM
c1ccc(CNCC2CCCCC2)cc1 [B9] | > 150 | > 150 | > 150 | > 150 | –
Cc1ccc(CNCCC2=CCCCC2)cc1 [B10, 2-(cyclohex-1-en-1-yl)-N-(4-methylbenzyl)ethan-1-amine] | > 150 | > 150 | > 150 | > 150 | –
Cc1cccc(CNCCC2=CCCCC2)c1 [B11, 2-(cyclohex-1-en-1-yl)-N-(3-methylbenzyl)ethan-1-amine] | > 150 | > 150 | > 150 | > 150 | –
COc1ccc(CNCCC2=CCCCC2)cc1 [B12] | > 150 | > 150 | > 150 | > 150 | –
Cc1ccccc1CNCCC1=CCCCC1 [B13, 2-(cyclohex-1-en-1-yl)-N-(2-methylbenzyl)ethan-1-amine] | 150 (≈ 34.4 µg/mL) | > 150 | 55 (≈ 12.6 µg/mL) | 90 (≈ 20.6 µg/mL) | –
Fc1ccc(CNCCC2=CCCCC2)cc1 [B14] | > 150 | > 150 | > 150 | > 150 | –
C1=C(CCNCc2ccncc2)CCCC1 [B15] | – | – | – | – | MIC (H37RvMA; WT H37Rv MTB): >150 µM; MIC E. coli delta-TolC LB Media (E. coli): >150 µM; MIC WT E. coli LB Media (E. coli): >150 µM; MIC A. baumannii LB Media (A. baumannii): >150 µM
CCCC(C)NCc1ccccc1 (stereo not shown) [B16] | > 150 | > 150 | > 150 | > 150 | –
Cl.c1ccc(CNCC2CCCCC2)cc1 [B17] | – | – | – | – | MIC (H37RvMA; WT H37Rv MTB): >150 µM; MIC E. coli delta-TolC LB Media (E. coli): >150 µM; MIC WT E. coli LB Media (E. coli): >150 µM; MIC A. baumannii LB Media (A. baumannii): >150 µM
c1ccc(CNCC2(c3ccc4c(c3)OCO4)CC2)cc1 [B18] | > 150 | – | > 150 | > 150 | MIC (H37RvMA; [1]): > 150 µM
OC(CNCc1ccccc1)c1cccc2ccccc12 (stereo not shown) [B19] | – | – | – | – | MIC (H37RvMA; WT H37Rv MTB): 150 µM (≈ 41.6 µg/mL); MIC E. coli delta-TolC LB Media (E. coli): >150 µM; MIC WT E. coli LB Media (E. coli): >150 µM; MIC A. baumannii LB Media (A. baumannii): >150 µM
CC(CC1CCCO1)NCc1ccccc1 (stereo not shown) [B20] | > 150 | > 150 | > 150 | > 150 | –
Fc1cc(CCNCc2ccccc2)c2c(c1)COCO2 [B21] | > 150 | > 150 | > 150 | > 150 | –
c1ccc(CNCC2Cc3ccccc32)cc1 (stereo not shown) [B22] | > 150 | > 150 | > 150 | > 150 | –
c1ccc(CNCC2CCOc3ccccc32)cc1 (stereo not shown) [B23] | > 150 | > 150 | > 150 | > 150 | –
c1ccc(CNCCc2ccc3c(c2)CCO3)cc1 [B24] | – | – | > 150 | > 150 | MIC (H37RvMA; [1]): > 150 µM; MIC (A. baumannii; [8]): > 150 µM

Structure (SMILES) | MIC (A. baumannii; [4]) [µM] | MIC (H37RvMA; [5]) [µM] | MIC (E. coli; [6]) [µM] | MIC (E. coli; [7]) [µM] | also measured
c1ccc(CNCCC2CCOCC2)cc1 [B25] | > 150 | > 150 | > 150 | > 150 | –
Cc1noc(C)c1CC(C)NCc1ccccc1 (stereo not shown) [B26] | > 150 | – | > 150 | > 150 | MIC (H37RvMA; [1]): > 150 µM
C1=C(CCNCc2ccccc2)c2ccccc2C1 [B27] | > 150 | 91 (≈ 22.7 µg/mL) | > 150 | > 150 | –
COc1ccc(C(C)C(C)NCc2ccccc2)cc1 (stereo not shown) [B28] | > 150 | – | > 150 | > 150 | MIC (H37RvMA; [1]): > 150 µM
CC(CC1CCOCC1)NCc1ccccc1 (stereo not shown) [B29] | > 150 | > 150 | > 150 | > 150 | –
c1ccc(CNCCC2CCC2)cc1 [B30] | > 150 | > 150 | > 150 | > 150 | –
CC(CC1CCOC1)NCc1ccccc1 (stereo not shown) [B31] | > 150 | > 150 | > 150 | > 150 | –
c1ccc(CNC2(C3CC3)CC2)cc1 [B32] | > 150 | > 150 | > 150 | > 150 | –
CC(CC1CCC1)NCc1ccccc1 (stereo not shown) [B33] | – | – | > 150 | > 150 | MIC (H37RvMA; [1]): > 150 µM; MIC (A. baumannii; [8]): > 150 µM
CC(CC1CC1)NCc1ccccc1 (stereo not shown) [B34] | > 150 | > 150 | > 150 | > 150 | –
CC(NCc1ccccc1)C1CCCC1 (stereo not shown) [B35] | > 150 | > 150 | > 150 | > 150 | –
CC(NCCC1=CCCCC1)c1ccccc1 (stereo not shown) [B36] | > 150 | > 150 | > 150 | > 150 | –
OC1(CNCc2ccccc2)C2C3CC4C5C3CC2C5C41 (stereo not shown) [B37] | > 150 | 150 (≈ 42.2 µg/mL) | > 150 | > 150 | –
CC(CC1CCCC1)NCc1ccccc1 (stereo not shown) [B38] | – | – | 90 (≈ 19.6 µg/mL) | 91 (≈ 19.8 µg/mL) | MIC (H37RvMA; [1]): > 150 µM; MIC (A. baumannii; [8]): 150 µM (≈ 32.6 µg/mL)
C1=C(CCNCc2ccccc2)CCC1 [B39] | > 150 | > 150 | > 150 | > 150 | –
c1ccc(CNCCC2CCOC2)cc1 (stereo not shown) [B40] | > 150 | > 150 | > 150 | > 150 | –
CC(Cc1cnn(C)c1)NCc1ccccc1 (stereo not shown) [B41] | > 150 | – | > 150 | > 150 | MIC (H37RvMA; [1]): > 150 µM
c1ccc(CNCCc2cccc3cccnc23)cc1 [B42] | > 150 | > 150 | > 150 | > 150 | –
c1ccc(CNCC2CC3CCC2C3)cc1 (stereo not shown) [B43] | > 150 | > 150 | > 150 | > 150 | –
COc1ccc(C(C)CNCc2ccccc2)cc1OC (stereo not shown) [B44] | > 150 | – | > 150 | > 150 | MIC (H37RvMA; [1]): > 150 µM
c1ccc(CNCC2C3CCc4ccccc4C32)cc1 (stereo not shown) [B45] | > 150 | 91 (≈ 24 µg/mL) | > 150 | > 150 | –
c1ccc(CNCCC2COc3ccccc3O2)cc1 (stereo not shown) [B46] | > 150 | > 150 | > 150 | > 150 | –
c1ccc(CNCCC2CCSCC2)cc1 [B332] | > 150 | – | – | – | MIC (E. coli; [2]): > 150 µM; MIC (E. coli; [3]): > 150 µM
O=C1Cc2ccccc2CN1CCC1CCCCC1 [B379] | > 150 | – | – | – | MIC (E. coli; [2]): 150 µM (≈ 38.6 µg/mL); MIC (E. coli; [3]): > 150 µM
